Tests used:
mice = assay type: in vivo; conditions: p.o., motility inhibiting effect
Procedure: Method: Borsy, J., Csanyi, E., Lazar, I.: Arch. Int. Pharmacodyn. 124, 1-2 (1960)
The tests were performed on mice. Groups consisting of 3 mice each were trated perorally with different doses of the compounds to be tested. One hour after the administration the test animals were placed in a Dews equipment. In this equipment the number of interruptions of infrared beam within 30 minutes was counted.

Acute toxicity on mice = conditions: mouse, in vivo, po, observed 14 days
Procedure: Method: Litchfield, J. T., Wilcoxon, F. W.: Pharmacol. Exp. Ther., 96, 99 (1949)
White mice belonging to the CFLP strain (body weight 18 to 22 g, both male and female) were used, 6 animals for each dose. The test compounds were administered orally in a volume of 20 ml/kg. […] The mice were kept in a plastic cage at room temperature. The animals get tap water and standard mouse fodder ad libitum. The toxicity data were determined with the aid of the method of Litchfield and Wilcoxon.

[1] = test system: experimental coronaria insufficiency; test: Antianginal effect (vasopressin-induced experimental coronaria insufficiency, ECG wave T); assay type: in vivo; conditions: Rattus norvegicus; rats, iv., 2 minutes prior to vasopressin
Procedure: The test was carried out on rats weighing 180 to 220 g. The animals were narcotised with chloralese-urethane (70-700 mg/kg ip.). The ECG was registered with needle electrodes in standard II leading. The experimental coronaria insufficiency was induced with vasopressin (1 NE/kg i.v.). The height of wave T was measured before and after the administration of vasopressin in both the control and treated groups.

[2] = test system: Gastric-secretion and ulcus; test: Stomach-secretion and ulcus tests (pylorus ligature); assay type: in vivo, Wistar rats; conditions: 3 hours before operation
Procedure: Method: Shay, H., Komarov, S. A., Fels. S. S., Meranze, D., Gruenstein, M., Siplet, H.: Gastroenterology 5, 45 (1945); Adami, E., Marazzi-Ubertti, E., Tirba, C.: Arch. Int. Pharmacodyn. 147, 113 (1964)
Starved wistar […] of 150-250 g body weight were used, 4 male and 4 female animals for each dose. On the day of the experiment the pylorus of the animals was ligatured under ether narcosis. The doses of the test compounds were administered per os, 3 hours before the operation. The control groups were treated with the carrier in identical way. 4 hours after the operation the animals were over-narcotized with ether, their stomach was removed, the stomach contents were separated and after centrifugation the volume of the gastric juices was measured, then their free-acid content and total acidity, resp., were determined by titration with 0.1N NaOH solution. The changes of the gastric mucous membrane were investigated macroscopically and characterized by an ulcus index determined with the aid of the punctuation method of Adami and coworkers.

Alcaligenea faecalis = test: Antimicrobial effect, agar diffusion method; assay type: cell-based; conditions: HNCMB 140001; 500/μg/hole
Description: (§1) In addition, the compounds according to the invention posses valuable antimicrobial effect, especially against nonfermenting Gram-negative bacteria strains.

Pseudomonas stutzeri = test: Antimicrobial effect, agar diffusion method; assay type: cell-based; conditions: HNCMB 173008; 500/μg/hole
Description: as §1

Pseudomonas aeruginosa = test: Antimicrobial effect, agar diffusion method; assay type: cell-based; conditions: HNCMB 170006; 500/μg/hole
Description: as §1

Shigella sonnei = test: Antimicrobial effect, agar diffusion method; assay type: cell-based; conditions: HNCMB 20046; 500/μg/hole
Description: as §1

[3] = test system: Acinetobacter calcoaceticus; test: Antimicrobial effect, agar diffusion method; assay type: cell-based; conditions: HNCMB 150001; 500/μg/hole
Description: as §1

Salmonella enteritidus = test: Antimicrobial effect, agar diffusion method; assay type: cell-based; conditions: HNCMB 10091; 500/μg/hole
Description: as §1

Question: For `CN(N)C(=S)n1nc(N2CCOCC2)nc1N` [Example 1, 1-(5-Amino-3-morpholino-1H-1,2,4-triazol-1-yl)-N-methyl-carbothiohydrazide], which Therapeutical index (mice) is on record?
Answer: > 10

Question: What about the LD50 at 336 h (Acute toxicity on mice) of the same molecule?
Answer: > 1000 mg/kg

Question: With `CC(Cc1ccccc1)NCCC(c1ccccc1)c1ccccc1` (centres unmarked) [Prenylamine, reference compound] as the molecule, how does the ED50 [1] read?
Answer: 6.5 mg/kg

Question: Which results are given for `CSc1nc(N)n(C(=S)NN)n1` [Example 17, 1-(5-Amino-3-methylthio-1H-1,2,4-triazol-1-yl)carbothiohydrazide]?
Answer: ED50 [1]: 0.84 mg/kg; Therapeutical index (mice): ~ 5; LD50 at 336 h (Acute toxicity on mice): 350 mg/kg

Question: Which “Inhibition related to the control in %, free acid” value ([2]; 60 mg/kg po.) does the source give for `CSc1nc(N)n(C(=S)N(C)N)n1` [Example 4, 1-(5-Amino-3-methylthio-1H-1,2,4-triazol-1-yl)-N-methyl-carbothiohydrazide] here?
Answer: 60%

Question: What about the “Inhibition related to the control in %, gastric juice” value ([2]; 60 mg/kg po.) of the same molecule?
Answer: 41%

Question: And the “Inhibition related to the control in %, total acidity” value ([2]; 60 mg/kg po.)?
Answer: 50%

Question: And the “Inhibition related to the control in %, ulcus index” value ([2]; 60 mg/kg po.)?
Answer: 67%

Question: What about the LD50 at 336 h (Acute toxicity on mice) of the same molecule?
Answer: 300 mg/kg

Question: Which results are given for `NNC(=S)n1nc(N2CCOCC2)nc1N` [Example 16, 1-(5-Amino-3-morpholino-1H-1,2,4-triazol-1-yl)carbothiohydrazide]?
Answer: ED50 [1]: 0.7 mg/kg; LD50 at 336 h (Acute toxicity on mice): 1000 mg/kg

Question: For `CN1CCN(c2nc(N)n(C(=S)N(C)N)n2)CC1` [Example 9], which “Inhibition (%)” value (Alcaligenea faecalis) is on record?
Answer: 23%

Question: And the “Inhibition (%)” value (Pseudomonas stutzeri)?
Answer: 25%

Question: What about the “Inhibition (%)” value (Pseudomonas aeruginosa) of the same molecule?
Answer: 14%

Question: And the “Inhibition (%)” value (Shigella sonnei)?
Answer: 19%

Question: And the “Inhibition (%)” value [3]?
Answer: 20%

Question: And the “Inhibition (%)” value (Salmonella enteritidus)?
Answer: 17%

Question: And the LD50 at 336 h (Acute toxicity on mice)?
Answer: 1000 mg/kg

Question: Which results are given for `CN/C(=N/CCSCc1nc[nH]c1C)NC#N` [Cimetidine, reference compound]?
Answer: Inhibition related to the control in %, free acid ([2]; 50 mg/kg po.): 24%; Inhibition related to the control in %, gastric juice ([2]; 50 mg/kg po.): 22%; Inhibition related to the control in %, total acidity ([2]; 50 mg/kg po.): 15%; Inhibition related to the control in %, ulcus index ([2]; 50 mg/kg po.): 18%; Inhibition related to the control in %, free acid ([2]; 200 mg/kg po.): 91%; Inhibition related to the control in %, gastric juice ([2]; 200 mg/kg po.): 59%; Inhibition related to the control in %, total acidity ([2]; 200 mg/kg po.): 71%; Inhibition related to the control in %, ulcus index ([2]; 200 mg/kg po.): 72%

Question: Which Therapeutical index (mice) does the source give for `CCCC(C)(COC(N)=O)COC(N)=O` [Meprobamate, reference compound] here?
Answer: 4.1

Question: Which results are given for `CNN(C)C(=S)n1nc(N2CCOCC2)nc1N` [Example 20, 1-(5-Amino-3-morpholino-1H-1,2,4-triazol-1-yl)-N,N'-dimethyl-carbothiohydrazide]?
Answer: Inhibition related to the control in %, free acid ([2]; 50 mg/kg po.): 46%; Inhibition related to the control in %, gastric juice ([2]; 50 mg/kg po.): 36%; Inhibition related to the control in %, total acidity ([2]; 50 mg/kg po.): 36%; Inhibition related to the control in %, ulcus index ([2]; 50 mg/kg po.): 39%; Inhibition related to the control in %, free acid ([2]; 200 mg/kg po.): 91%; Inhibition related to the control in %, gastric juice ([2]; 200 mg/kg po.): 58%; Inhibition related to the control in %, total acidity ([2]; 200 mg/kg po.): 78%; Inhibition related to the control in %, ulcus index ([2]; 200 mg/kg po.): 70%; LD50 at 336 h (Acute toxicity on mice): 1000 mg/kg

From patent US5225410A, “Triazolyl hydrazide derivatives” (Egis Gyogyszergyar, priority 1989, dated 1993)
